22 compounds from US20260034111A1, “NOVEL HETEROCYCLES AS sPLA2-X INHIBITORS” (Cayman Chemical Company Incorporated, priority 2022, published 2026) can be followed below.

Where a name gives a salt, the structure may show the parent alone. Read-outs that look alike come from different tables or passages of the source. A value given as a limit tells only on which side of the number the result lay.

Assay [1] addresses T1, sPLA2-X protein (Homo sapiens, UniProt O15496).
T1 sequence (O15496 43-165): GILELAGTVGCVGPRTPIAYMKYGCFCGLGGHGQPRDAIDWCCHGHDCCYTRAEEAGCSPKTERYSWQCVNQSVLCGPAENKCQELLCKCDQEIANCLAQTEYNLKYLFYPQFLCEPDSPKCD
Kind of assay: sPLA2-X enzyme inhibition assay (thio-PC substrate, DTNB detection, absorbance 410 nm). It counts as biochemical. On the set-up: made in house; host or cells: E. coli. The settings on record: class symbols.

Assay [2] deals with T1, sPLA2-X protein. Kind of assay: SPR single cycle kinetic binding analysis against sPLA2-X. On the set-up: His tag (implied by capture on NTA surface and by anti-His antibody). The settings on record: protein captured cross-linked on NTA surface, 1:1 fit. Here is the method: sPLA2-X protein was captured on flow cell 2-4 on activated NTA surface (NTA Series S Sensorchip (Cytiva)) after dilution in 1×HBS-EP+buffer (Cytiva), 10 mM CaCl2 to 0.01 mg/mL with a flow rate of 5 μL/min for 60 sec. Single cycle kinetic binding analysis was performed using 10 mM stock solution of LY531590 (Cayman Chemical, item #18267) (prepared in DMSO diluted 1:5 in running buffer (lx HBS-EP+buffer (Cytiva)+10 mM CaCl2+2% DMSO) from 10 to 0.016 μM. Flow cell 1 was used as a reference surface and 350 mM EDTA (Cytiva) was used to regenerate the surface. DMSO solvent correction was included. A 1:1 fit was used for the kinetics analysis.
SPLA2-X protein was captured cross-linked on flow cell 2, 3, and 4 with activated NTA surface (NTA Series S Sensorchip (Cytiva)) at 0.01 mg/mL with a flow rate of […] for 60 sec. Single cycle kinetic binding analysis was performed using a 50 mM stock solution of Compound 5 (prepared in DMSO) diluted 1:5 in running buffer (1×HIBS-EP+buffer (Cytiva)+10 mM CaCl2+2% o DMSO) from 800 to 1.2 nMV. Flow cell 1 was used as a reference surface. DMSO solvent correction was included. A 1:1 fit was used for the kinetics and steady state affinity analysis.

Assay [3] deals with T2, recombinant human sPLA2-V enzyme (Homo sapiens, UniProt P39877).
T2 construct: made in house; host or cells: E. coli
T2 sequence (P39877 21-138): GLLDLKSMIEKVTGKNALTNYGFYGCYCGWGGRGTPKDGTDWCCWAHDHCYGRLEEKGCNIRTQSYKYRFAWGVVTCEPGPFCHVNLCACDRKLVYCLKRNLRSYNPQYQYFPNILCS
Kind of assay: sPLA2-V enzyme inhibition assay (thio-PC substrate, DTNB detection, absorbance 410 nm). It counts as biochemical. Conditions: class symbols.

For assay [4], the target named is T3, recombinant human sPLA2-IIA enzyme (Homo sapiens, UniProt P14555).
T3 construct: made in house; host or cells: E. coli
T3 sequence (P14555 21-144): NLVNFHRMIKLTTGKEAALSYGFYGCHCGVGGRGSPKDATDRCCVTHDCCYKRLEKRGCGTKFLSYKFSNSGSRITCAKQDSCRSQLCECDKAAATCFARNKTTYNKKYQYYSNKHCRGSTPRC
Kind of assay: sPLA2-IIA enzyme inhibition assay (thio-PC substrate, DTNB detection, absorbance 410 nm). It counts as biochemical. Conditions: class symbols.

Where [5] appears, read: read-out: sPLA2 Type X Inhibition (IC50; nM).
[6] abbreviates: read-out: sPLA2 Type V Inhibition (IC50; nM).
[7] abbreviates: read-out: sPLA2 Type IIa Inhibition (IC50; nM).

By IC50 is commonly meant the concentration needed to halve the response being measured. A word on the Kd: it is the equilibrium constant for the complex coming apart. Lower therefore signals tighter binding. On to `NC(=O)c1sc2ccc(OC(F)(F)F)cc2c1-c1cccc(CCC(=O)O)c1` [Compound 5, 3-(3-(2-carbamoyl-5-(trifluoromethoxy)benzo[b]thiophen-3-yl)phenyl)propanoic acid], for which the figures for the IC50 (on sPLA2-X protein [1] (setting [5]); in assay [3] (setting [6]); in assay [4] (setting [7])) were 20 to 50 nM, 1500 to 5000 nM and 200 to 500 nM, respectively. Moreover, the Rmax at sPLA2-X protein [2] is 2.13. At sPLA2-X protein [2] (kinetics and steady state affinity), this compound had a Kd of 8.02 nM.
Turning to `NC(=O)c1cc2ccc(OC(F)(F)F)cc2n1-c1cccc([C@@H](N)CC(=O)O)c1` [Compound 40, (S)-3-amino-3-(3-(2-carbamoyl-6-(trifluoromethoxy)-1H-indol-1-yl)phenyl)propanoic acid], the IC50 at sPLA2-X protein [1] (setting [5]) is greater than 200 nM; in assay [3] (setting [6]) it was greater than 5000 nM; in assay [4] (setting [7]), greater than 1000 nM.
The matching figures for `N[C@@H](CC(=O)O)c1cccc(-n2c(C(=O)O)cc3ccc(OC(F)(F)F)cc32)c1` [Compound 41, (S)-1-(3-(1-amino-2-carboxyethyl)phenyl)-6-(trifluoromethoxy)-1H-indole-2-carboxylic acid]: greater than 200 nM, greater than 5000 nM and greater than 1000 nM.
The corresponding values for `NC(=O)c1cc2ccc(OC(F)(F)F)cc2n1-c1cccc([C@H](N)CC(=O)O)c1` [Compound 42, (R)-3-amino-3-(3-(2-carbamoyl-6-(trifluoromethoxy)-1H-indol-1-yl)phenyl)propanoic acid] are greater than 200 nM, greater than 5000 nM and greater than 1000 nM.
The corresponding values for `N[C@H](CC(=O)O)c1cccc(-n2c(C(=O)O)cc3ccc(OC(F)(F)F)cc32)c1` [Compound 43, (R)-1-(3-(1-amino-2-carboxyethyl)phenyl)-6-(trifluoromethoxy)-1H-indole-2-carboxylic acid] are greater than 200 nM, greater than 5000 nM and greater than 1000 nM.
Take `NC(=O)c1cc2ccc(OC(F)(F)F)cc2n1-c1cccc(SCC(=O)O)n1` [Compound 44, 2-((6-(2-carbamoyl-6-(trifluoromethoxy)-1H-indol-1-yl)pyridin-2-yl)thio)acetic acid]: the IC50 at sPLA2-X protein [1] (setting [5]) is less than 20 nM; in assay [3] (setting [6]), greater than 5000 nM; in assay [4] (setting [7]), greater than 1000 nM.
The matching figures for `NC(=O)c1cc2ccc(OC(F)(F)F)cc2n1-c1cccc(S(=O)(=O)CC(=O)O)n1` [Compound 45, 2-((6-(2-carbamoyl-6-(trifluoromethoxy)-1H-indol-1-yl)pyridin-2-yl)sulfonyl)acetic acid]: 20 to 50 nM, greater than 5000 nM and greater than 1000 nM.
Take `NC(=O)c1cc2ccc(OC(F)(F)F)cc2n1-c1cccc(C(F)(F)CO)c1` [Compound 46, 1-(3-(1,1-difluoro-2-hydroxyethyl)phenyl)-6-(trifluoromethoxy)-1H-indole-2-carboxamide]: the IC50 at sPLA2-X protein [1] (setting [5]) is 50 to 200 nM; in assay [3] (setting [6]), greater than 5000 nM; in assay [4] (setting [7]) it was greater than 1000 nM.
The corresponding values for `CS(=O)(=O)OCC(F)(F)c1cccc(-n2c(C(N)=O)cc3ccc(OC(F)(F)F)cc32)c1` [Compound 47, 2-(3-(2-carbamoyl-6-(trifluoromethoxy)-1H-indol-1-yl)phenyl)-2,2-difluoroethyl methanesulfonate] are greater than 200 nM, greater than 5000 nM and greater than 1000 nM.
The corresponding values for `CC(C)(C)OC(=O)NC1(c2cccc(-n3c(C(N)=O)cc4ccc(OC(F)(F)F)cc43)n2)CCC1` [Compound 48, tert-butyl (1-(6-(2-carbamoyl-6-(trifluoromethoxy)-1H-indol-1-yl)pyridin-2-yl)cyclobutyl)carbamate] are greater than 200 nM, greater than 5000 nM and greater than 1000 nM.
The corresponding values for `NC(=O)c1cc2ccc(OC(F)(F)F)cc2n1-c1cccc(C2(N)CCC2)n1` [Compound 49, 1-(6-(1-aminocyclobutyl)pyridin-2-yl)-6-(trifluoromethoxy)-1H-indole-2-carboxamide TFA salt] are greater than 200 nM, greater than 5000 nM and greater than 1000 nM.
Turning to `NC(=O)c1cc2ccc(OC(F)(F)F)cc2n1-c1cccc(C2(NCC(=O)O)CCC2)n1` [Compound 50, (1-(6-(2-carbamoyl-6-(trifluoromethoxy)-1H-indol-1-yl)pyridin-2-yl)cyclobutyl)glycine], the IC50 is 20 to 50 nM at sPLA2-X protein [1] (setting [5]), greater than 5000 nM in assay [3] (setting [6]) and greater than 1000 nM in assay [4] (setting [7]).
The corresponding values for `NC(=O)c1cc2ccc(OC(F)(F)F)cc2n1-c1cccc(N2CC(C(=O)O)C2)n1` [Compound 52, 1-(6-(2-carbamoyl-6-(trifluoromethoxy)-1H-indol-1-yl)pyridin-2-yl)azetidine-3-carboxylic acid] are 50 to 200 nM, 1500 to 5000 nM and greater than 1000 nM.
The matching figures for `NC(=O)c1cc2ccc(OC(F)(F)F)cc2n1-c1cncc(CCC(=O)O)c1` [Compound 53]: 50 to 200 nM, greater than 5000 nM and greater than 1000 nM.
The matching figures for `NC(=O)c1sc2ccc(OC(F)(F)F)cc2c1-c1cccc(C2CC2C(=O)O)n1` (stereo not drawn) [Compound 56, trans-2-(6-(2-carbamoyl-5-(trifluoromethoxy)benzo[b]thiophen-3-yl)pyridin-2-yl)cyclopropane-1-carboxylic acid]: less than 20 nM, greater than 5000 nM and greater than 1000 nM.
Take `NC(=O)c1[se]c2ccc(OC(F)(F)F)cc2c1-c1cccc(C2CC2C(=O)O)n1` (stereo not drawn) [Compound 57, trans-2-(6-(2-carbamoyl-5-(trifluoromethoxy)benzo[b]selenophen-3-yl)pyridin-2-yl)cyclopropane-1-carboxylic acid]: the IC50 against sPLA2-X protein [1] (sPLA2 Type X Inhibition (IC50; nM)) is 50 to 200 nM; in assay [3] (sPLA2 Type V Inhibition (IC50; nM)), greater than 5000 nM; in assay [4] (sPLA2 Type IIa Inhibition (IC50; nM)) it was greater than 1000 nM.
With `NC(=O)c1nc2ccc(OC(F)(F)F)cc2n1-c1cccc(C2CC2C(=O)O)n1` (stereo not drawn) [Compound 58, trans-2-(6-(2-carbamoyl-6-(trifluoromethoxy)-1H-benzo[d]imidazol-1-yl)pyridin-2-yl)cyclopropane-1-carboxylic acid], the IC50 was greater than 200 nM on sPLA2-X protein [1] (setting [5]), greater than 5000 nM in assay [3] (setting [6]) and greater than 1000 nM in assay [4] (setting [7]).
The matching figures for `NC(=O)c1cc2ccc(OC(F)(F)F)cc2n1-c1cccc(C2(CC(=O)O)CC2)n1` [Compound 59, 2-(1-(6-(2-carbamoyl-6-(trifluoromethoxy)-1H-indol-1-yl)pyridin-2-yl)cyclopropyl)acetic acid]: less than 20 nM, greater than 5000 nM and greater than 1000 nM.
The corresponding values for `CC(C)(CC(=O)O)c1cccc(-n2c(C(N)=O)cc3ccc(OC(F)(F)F)cc32)n1` [Compound 62, 3-(6-(2-carbamoyl-6-(trifluoromethoxy)-1H-indol-1-yl)pyridin-2-yl)-3-methylbutanoic acid] are 20 to 50 nM, 1500 to 5000 nM and greater than 1000 nM.
The corresponding values for `NC(=O)c1cc2ccc(OC(F)(F)F)cc2n1-c1cccc(N2CC(F)(F)C2)n1` [Compound 68, 1-(6-(3,3-difluoroazetidin-1-yl)pyridin-2-yl)-6-(trifluoromethoxy)-1H-indole-2-carboxamide] are 50 to 200 nM, greater than 5000 nM and greater than 1000 nM.
For the compound `NC(=O)c1cc2ccc(OC(F)(F)F)cc2n1-c1cccc(N2CC[C@H]2C(=O)O)n1` [Compound 69, (S)-1-(6-(2-carbamoyl-6-(trifluoromethoxy)-1H-indol-1-yl)pyridin-2-yl)azetidine-2-carboxylic acid], the IC50 at sPLA2-X protein [1] (setting [5]) is greater than 200 nM; in assay [3] (setting [6]), greater than 5000 nM; in assay [4] (setting [7]), greater than 1000 nM.
The corresponding values for `NC(=O)c1cc2ccc(OC(F)(F)F)cc2n1-c1cccc(N2CC[C@@H]2C(=O)O)n1` [Compound 70, (R)-1-(6-(2-carbamoyl-6-(trifluoromethoxy)-1H-indol-1-yl)pyridin-2-yl)azetidine-2-carboxylic acid] are less than 20 nM, 500 to 1500 nM and greater than 1000 nM.
